In patent US20070010486A1 (priority 2005, published 2007):
Where a name gives a salt, the structure may show the parent alone.

Details: use of CAPTISOL

increase in water solubility: > 5 fold
Structure (SMILES): OC(COc1cccc2ncccc12)CN1CCN([C@@H]2c3ccccc3[C@@H]3[C@H](c4ccccc42)C3(F)F)CC1 (stereo partly shown) [zosuquidar trihydrochloride]
